Read-outs that look alike come from different tables or passages of the source.
Tests used:
[1] = biological target: T1, BRD4 (Homo sapiens (Human), UniProt O60885); test: biochemical; details: BRD4 IC50 (μM gmean)
[2] = biological target: T1, BRD4; details: read-out: BRD4 IC50 (μM gmean)

Row | SMILES | IC50 [1] | IC50 [2]
1 | COC(=O)N1c2ccc3c(nc(Cc4ccccc4)n3CCC(N)=O)c2CC[C@@H]1C [Example 289, methyl (7S)-2-benzyl-3-(2-carbamoylethyl)-7-methyl-3H,6H,7H,8H,9H-imidazo[4,5-f]quinoline-6-carboxylate] | 1 to 1000 µM | –
2 | COC(=O)N1c2ccc3c(nc(C(C)Cc4cnn(C)c4)n3C3CCNCC3)c2CC[C@@H]1C (stereo partly drawn) [Example 951] | – | 1 to 1000 µM
3 | COC(=O)N1c2ccc3c(nc(C(C)Cn4cccn4)n3C3CCS(=O)(=O)C3)c2CC[C@@H]1C (stereo partly drawn) [Example 955] | – | 1 to 1000 µM
4 | COC(=O)N1c2ccc3c(nc(C(C)Cn4cccn4)n3C3CCS(=O)(=O)C3)c2CC[C@@H]1C (stereo partly drawn) [Example 956] | – | 1 to 1000 µM
5 | COC(=O)N1c2ccc3c(nc(C(C)Cn4cc(C)cn4)n3C3CCS(=O)(=O)C3)c2CC[C@@H]1C (stereo partly drawn) [Example 958] | – | 1 to 1000 µM
6 | COC(=O)N1c2ccc3c(nc(C(=O)Nc4ccccc4Cl)n3[C@@H]3CCC[C@@H](C(=O)O)C3)c2CC[C@@H]1C [Example 961] | – | 1 to 1000 µM
